For series [1], the system named is conditioned place aversion. The series can be described thus: Conditioned place aversion precipitated by naloxone. Type of series: in vivo, DBA/2J mice. The following applies: for Preference score: individual mice, time in environment paired with naloxone (5 mg/kg, i.p.) minus time in it at baseline, negative = aversion. The protocol: In addition to hyperalgesia, withdrawal from repeated administration of morphine produces somatic signs of withdrawal and conditioned place aversion. We tested the effects of CP612 on these responses. […] Two hours after this last injection of saline or morphine, mice were administered naloxone (5 mg/kg, i.p.) to precipitate somatic signs of withdrawal and conditioned place aversion. Withdrawal from repeated administration of morphine evoked somatic signs of withdrawal (Figure 11, A–C, and Supplemental Figure 2); only the highest dose of CP612 (40 mg/kg) reduced them (Figure 11, A–C) [H PKC inhibition (3, n = 62) = 33.34, P < 0.001]. Withdrawal from repeated administration of morphine also evoked conditioned place aversion (Figure 11, A and C) [F PKC inhibition (5,78) = 7.16, P < 0.001; mice receiving repeated administration of saline with vehicle versus mice receiving repeated administration of morphine with vehicle, P < 0.001], and this was not modified by CP612 at any dose tested (all P > 0.079).
The place conditioning apparatus was an acrylic box enclosed in light- and sound-attenuating, ventilated chambers (MED Associates). The box had 2 compartments separated by a removable sliding door. […] The dimensions of each compartment were 13.5 × 27 × 17 cm. Infrared light beams and photodetectors located along the walls of the box measured general activity and location of the mouse in each compartment, which were recorded using Activity Monitor version 7.0.5.10 software (Med Associates). On day 0 (pretest), drug-naive mice were acclimated for 15 minutes to the place conditioning apparatus without the sliding door, so they had free access to both compartments of the apparatus. This established a baseline side preference, based on the amount of time spent in each compartment. […] On day 6 (conditioning day), mice were pretreated with vehicle (10 mL/kg, i.p.) or CP612 (5, 10, 20, or 40 mg/kg, i.p.), followed by a single injection of morphine (100 mg/kg, i.p.) 4 hours later. Two hours after this last injection of morphine, mice were administered naloxone (5 mg/kg, i.p.), to precipitate withdrawal, and were immediately confined to 1 side of the conditioning apparatus for 20 minutes. During this conditioning period, mice were filmed (Raspberry Pi Camera) to assess somatic signs of withdrawal ([39]). Given the limited number of cameras and the poor quality of some videos, we were only able to film a subset of mice. The following behaviors were given a score of 1 per occurrence and episode: body shakes (paw tremors and wet dog shakes), teeth chatter, rearing, hopping, wall climbing, and backpedaling. These scores were summed to obtain a global withdrawal score and were obtained from an independent observer who was blind to the experimental conditions. A subset of videos was scored by 2 observers, to ensure internal validity (Cronbach’s α = 0.980, Correlation Observer r = 0.97, slope 1.15, P < 0.005). On day 7 (test day), mice were placed in the conditioning apparatus with free access to both compartments, for 15 minutes. We recorded the time spent in each compartment.

In the next series the target is T1, PKCζ (Homo sapiens, UniProt Q05513).
T1 construct: purchased SignalChem Biotech
Nature of the series: Lance-FRET kinase assay, PKCζ. Type of series: biochemical. The following applies: Figure 1B. How it is done: Kinase assays. CP612 was assayed against His-AVI–tagged human PKCε (1 nM) produced in Sf9 cells, and ROCK1 (Carna Biosciences; 5 nM) using the Lance-FRET kinase assay system (PerkinElmer Revvity). Other human recombinant PKCs (SignalChem Biotech) were assayed in triplicate at the following concentrations: PKCβII 1.6 nM, PKCγ 500 pM, PKCδ 5 nM, PKCθ 500 pM, and PKCζ 500 pM. PKCs were incubated in a 15 μL reaction volume with kinase buffer (20 mM Tris-HCL [pH 7.4], 10 mM MgCl2, 0.25 mM EGTA, 0.1 mg/mL BSA, and 0.15% Triton X-100), 50 nM ULight-labeled CREBtide […] (PerkinElmer, TRF0107, Revvity), and test compound. […] After incubation at 27°C for another 60 minutes, phosphorylation was detected using a FlexStation 3 Microplate Reader (Molecular Devices) in LANCE TR-FRET mode (excitation = 340 nm, emission = 665 nm) and expressed as relative fluorescence units (RFU). The percentage of inhibition was calculated as: (signal without test compound − signal with test compound)/(signal without test compound − signal without ATP) × 100. […]
Kinase assays used 11-point concentration-response curves and results were analyzed by nonlinear regression using Prism 9 (GraphPad Software) to determine IC50 values. […] Scores for pain threshold, conditioned place preference, and self-administration were analyzed by ANOVA using the following factors. […]

A short description of series [2]: Kinetic aqueous solubility. Type of series: physicochemical. How it is done: Kinetic aqueous solubility. Test compounds were diluted 100-fold from 1 mM DMSO stocks into 0.1M phosphate-buffered saline (PBS) in triplicate. Diluted samples were shaken at room temperature at 600 rpm for 3 hours and then filtered by centrifugation (0.2 μm, PVDF) at 1,000g for 1 minute. Aliquots of 100 μL were diluted into 3 volumes of acetonitrile for extraction, vortexed for 15 seconds, centrifuged at 16,000g for 10 minutes at 4°C, and then analyzed by liquid chromatography–mass spectrometry (LC-MS).

The target of a further series is PKCδ (Homo sapiens, UniProt Q05655). Nature of the series: scanMax kinome panel, PKCδ. Type of series: binding. Also noted: purchased Eurofins-DiscoverX. The following applies: 200 nM CP612; read-out: scanMax % of control, PKCδ. How it is done: CP612 was screened for kinome specificity at 200 nM against 468 kinases using the scanMax assay panel from Eurofins-DiscoverX. CP612 inhibited 10 other WT kinases besides PKCε, all to < 10% of control: CLK1 (CDC Like Kinase 1), CLK4, PKN1 (Protein kinase N1), PKN2, PKCδ, PKCη, PKCθ, PRKG2 (Protein Kinase CGMP-Dependent 2), ROCK1, and ROCK2.

Values after ≈ are worked out from the molar mass of the structure shown. Values joined by “and” are separate entries in the source; they are usually repeats but may differ in a detail not shown here. Identical values can stand only once. Like-named read-outs stand apart in the source and are kept apart here.

T1 sequence (Q05513 whole entry): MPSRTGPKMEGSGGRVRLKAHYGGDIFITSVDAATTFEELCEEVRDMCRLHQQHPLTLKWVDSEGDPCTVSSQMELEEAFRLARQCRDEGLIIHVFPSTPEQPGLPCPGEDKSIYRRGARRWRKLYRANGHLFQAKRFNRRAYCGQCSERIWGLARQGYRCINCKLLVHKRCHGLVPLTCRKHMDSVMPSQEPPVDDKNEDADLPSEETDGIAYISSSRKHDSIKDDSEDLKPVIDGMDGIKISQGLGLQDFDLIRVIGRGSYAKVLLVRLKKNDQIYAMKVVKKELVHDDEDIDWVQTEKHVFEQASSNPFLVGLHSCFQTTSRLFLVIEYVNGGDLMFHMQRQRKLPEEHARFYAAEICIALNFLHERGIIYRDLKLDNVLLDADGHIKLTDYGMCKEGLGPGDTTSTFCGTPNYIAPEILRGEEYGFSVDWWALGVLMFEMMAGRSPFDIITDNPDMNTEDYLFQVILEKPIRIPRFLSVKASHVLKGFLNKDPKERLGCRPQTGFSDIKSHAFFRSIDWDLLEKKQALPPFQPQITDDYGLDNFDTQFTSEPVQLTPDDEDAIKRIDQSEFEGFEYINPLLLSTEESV
Chain of PKCδ (Q05655 whole entry): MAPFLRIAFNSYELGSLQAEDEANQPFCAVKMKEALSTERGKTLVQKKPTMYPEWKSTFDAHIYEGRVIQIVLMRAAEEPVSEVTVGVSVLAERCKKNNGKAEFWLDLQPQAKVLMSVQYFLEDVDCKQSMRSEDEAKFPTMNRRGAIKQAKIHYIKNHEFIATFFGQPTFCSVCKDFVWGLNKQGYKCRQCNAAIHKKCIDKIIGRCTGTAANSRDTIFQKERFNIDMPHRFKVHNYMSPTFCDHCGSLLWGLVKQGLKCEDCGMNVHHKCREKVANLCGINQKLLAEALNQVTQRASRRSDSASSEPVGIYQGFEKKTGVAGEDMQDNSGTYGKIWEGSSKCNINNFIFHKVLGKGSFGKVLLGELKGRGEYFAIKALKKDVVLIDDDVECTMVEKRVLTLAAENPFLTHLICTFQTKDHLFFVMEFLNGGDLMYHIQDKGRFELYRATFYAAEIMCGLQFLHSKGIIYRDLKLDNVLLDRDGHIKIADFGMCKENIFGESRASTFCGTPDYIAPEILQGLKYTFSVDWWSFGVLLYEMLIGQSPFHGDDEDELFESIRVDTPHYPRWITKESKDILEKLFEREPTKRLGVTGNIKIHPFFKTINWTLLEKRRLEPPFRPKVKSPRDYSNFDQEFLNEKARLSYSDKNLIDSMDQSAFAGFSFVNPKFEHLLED

What is called kinetic solubility is the concentration staying in solution when a stock, usually in DMSO, is diluted into the medium. As for `N[C@H](CNC(=O)C1(c2ccc(Cl)cc2)CCCC1)c1ccc(C(=O)Nc2ccncc2)cc1` [CP612], the Preference score in series [1] (Morphine + CP612 5 mg/kg) was -0.0843 and -0.28 and -0.22 and -0.17 and -0.023 and -0.35; in series [1] (Morphine + CP612 10 mg/kg), -0.07 and -0.22 and -0.42 and -0.21 and -0.19 and -0.38 and -0.15 and -0.12 and 0.14 and -0.13 and -0.10 and 0.0341 and -0.23; in series [1] (Morphine + CP612 20 mg/kg), -0.0656 and -0.40 and -0.13 and -0.25 and -0.10 and -0.30 and -0.31; in series [1] (Morphine + CP612 40 mg/kg), -0.17 and -0.18 and -0.35 and -0.39 and 0.000111 and -0.22 and 0.013 and -0.28 and -0.25 and -0.09 and -0.27. For the same molecule, in series [1] (male DBA/2J mice, CP612 5, 10, 20, 40 mg/kg i.p.), the “Effect on conditioned place aversion” value is “not modified”. On PKCζ, the “Inhibition of atypical PKCζ” value was “did not inhibit”. The kinetic solubility at 3 h in series [2] (0.1M phosphate-buffered saline (PBS), aqueous buffer, kinetic from dmso stock, 0.1M PBS, room temperature, 3 hours, read-out: Kinetic aqueous solubility) was 7410 ± 120 nM (≈ 3.43 µg/mL); in series [2] (0.1M phosphate-buffered saline (PBS), aqueous buffer, kinetic from dmso stock, mean of 3 samples, read-out: Kinetic aqueous solubility, Corrected (nM), Mean), 7410 nM (≈ 3.43 µg/mL); in series [2] (0.1M phosphate-buffered saline (PBS), aqueous buffer, kinetic from dmso stock, single sample, read-out: Kinetic aqueous solubility, Corrected), 7540 nM (≈ 3.49 µg/mL); in series [2] (single sample, read-out: Kinetic aqueous solubility, Corrected) it was 7309.08 nM and 7388.24 nM. For the same molecule, the remaining binding at 0.2 µM on PKCδ was less than 10%.

The record behind these values is PMC12016938, “A small molecule PKCε inhibitor reduces hyperalgesia induced by paclitaxel or opioid withdrawal” (JCI Insight, 2025).
